Experimental data from patent US5597832A (Abbott Laboratories, priority 1994, dated 1997).
Where a name gives a salt, the structure may show the parent alone. Read-outs that look alike come from different tables or passages of the source.

Columns and labels:
dopamine receptors = conditions: literature; cited from earlier work
dopamine D-2 receptor = molecular target: T1, dopamine D-2 receptor (Rattus norvegicus, UniProt P61169); test: D-2 receptor competitive binding, [3H]-spiroperidol, homogenized rat caudate; conditions: read-out: D-2 Ki
T1 construct: Homogenized rat caudate was the source of the D-2 receptors; from tissue; host or cells: rat caudate homogenate
T1 sequence (P61169 whole entry): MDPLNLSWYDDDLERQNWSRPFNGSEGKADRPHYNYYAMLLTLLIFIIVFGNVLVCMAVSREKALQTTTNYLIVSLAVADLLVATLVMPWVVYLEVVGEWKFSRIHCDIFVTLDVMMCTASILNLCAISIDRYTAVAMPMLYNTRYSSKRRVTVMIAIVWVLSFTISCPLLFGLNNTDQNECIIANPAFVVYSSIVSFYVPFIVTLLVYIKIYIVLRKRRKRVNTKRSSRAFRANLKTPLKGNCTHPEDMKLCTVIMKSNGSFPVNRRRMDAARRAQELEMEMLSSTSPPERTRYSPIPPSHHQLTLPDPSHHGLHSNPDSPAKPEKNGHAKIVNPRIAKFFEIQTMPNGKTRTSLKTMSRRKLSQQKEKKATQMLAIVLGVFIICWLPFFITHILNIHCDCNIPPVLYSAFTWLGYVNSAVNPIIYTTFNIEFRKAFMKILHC

D-1 receptor = test: Adenylate cyclase assay (agonist activity, cAMP); format: biochemical, goldfish retina or rat striatum
dopamine D-1 receptor = dopamine D-1 receptor (Rattus norvegicus, UniProt P18901); conditions: read-out: D-1 Ki
Chain of dopamine D-1 receptor (P18901 whole entry): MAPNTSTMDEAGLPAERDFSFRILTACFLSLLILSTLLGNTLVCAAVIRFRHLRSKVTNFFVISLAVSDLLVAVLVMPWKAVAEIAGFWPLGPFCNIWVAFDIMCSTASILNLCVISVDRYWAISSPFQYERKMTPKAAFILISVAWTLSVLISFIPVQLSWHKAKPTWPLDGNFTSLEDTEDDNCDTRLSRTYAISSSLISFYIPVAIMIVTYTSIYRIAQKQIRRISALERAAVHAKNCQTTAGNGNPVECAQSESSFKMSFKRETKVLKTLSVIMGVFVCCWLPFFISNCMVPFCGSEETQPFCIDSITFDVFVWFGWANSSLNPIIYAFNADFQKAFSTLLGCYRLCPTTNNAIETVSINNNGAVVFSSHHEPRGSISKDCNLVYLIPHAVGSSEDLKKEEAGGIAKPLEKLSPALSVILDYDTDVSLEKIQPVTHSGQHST

[1] = system: striatal dopamine receptors; test: animal or person; format: in vivo; conditions: Rattus norvegicus, sc, read-out: EC50, rotation behavior
rats = conditions: literature; cited from earlier work
schizophrenia = conditions: literature, cited from earlier work; for antipsychotic effects: low doses
Parkinson's disease = conditions: alone, some patients; cited from earlier work

| SMILES | Intrinsic Activity (%) (D-1 receptor) | Ki (dopamine D-1 receptor) [µM] | Ki (dopamine D-2 receptor; rat caudate, [3H]-spiroperidol) [µM] | EC50 (D-1 receptor) [µM] | ED50 [1] [µmol/kg] | other results |
| --- | --- | --- | --- | --- | --- | --- |
| Oc1ccc2c(c1O)CCC1NCc3ccccc3C21 (stereo not shown) |  |  |  |  |  | dopamine agonist activity (dopamine receptors): inactive at dopamine receptors |
| Cc1sc2c(c1C)CN[C@H]1CCc3cc(O)c(O)cc3[C@H]21 (relative stereo) [Example 21, trans-2,3-dimethyl-4,5,5a,6,7,11b-hexahydro-1-thia-5-aza-cyclopent-2-ena[c]phenanthrene-9,10-diol hydrobromide] | 95 | 0.015 |  |  |  | Ki (dopamine D-2 receptor): 0.066 µM; EC50 (D-1 receptor; goldfish retina or rat striatum homogenate): 0.182 µM |
| CCc1cc2c(o1)CN[C@@H]1CCc3cc(O)c(O)cc3[C@@H]21 (relative stereo) [Example 40, trans-2-Ethyl-4,5,5a,6,7,11b-hexahydro-3-oxa-5-aza-cyclopent-1-ena[c]phenanthrene-9,10-diol hydrochloride] | 70 | 0.015 | 0.48 | 0.037 | 0.12 |  |
| CC(C)c1nc2c(o1)[C@@H]1c3cc(O)c(O)cc3CC[C@H]1NC2 (relative stereo) [Example 50, trans-2-isopropyl-4,5,5a,6,7,11b-hexahydro-1-oxa-3,5-diaza-cyclopent-2-ena[c]phenanthrene-9,10-diol dihydrobromide] | 108 | 0.012 | 0.365 | 0.081 | > 1 |  |
| Cc1nc2c(o1)[C@@H]1c3cc(O)c(O)cc3CC[C@H]1NC2 (relative stereo) [Example 51, trans-2-Methyl-4,5,5a,6,7,11b-hexahydro-1-oxa-3,5-diaza-cyclopent-2-ena[c]phenanthrene-9,10-diol] | 100 | 0.011 | 0.382 | 0.065 | 0.33 |  |
| Oc1cc2c(cc1O)C1c3cc(C45CC6CC(CC(C6)C4)C5)sc3CNC1CC2 (stereo not shown) [Example 47, 2-(Adamantyl)-4,5,5a,6,7,11b-hexahydro-3-thia-5-aza-cyclopent-1-ena[c]phenanthrene-9,10-diol hydrobromide] |  |  | > 5 |  |  | Ki (dopamine D-1 receptor; rat caudate, [125I]SCH-23982): > 10 µM |
| Oc1cc2c(cc1O)C(c1ccccc1)CNCC2 (stereo not shown) [SKF 38393] |  |  |  |  |  | food intake (rats): decrease food intake by rats; effect on side-effects of haloperidol (schizophrenia; used in conjunction with haloperidol): ameliorate the undesired side-effects of the haloperidol |
| CN1CCc2cccc3c2[C@H]1Cc1ccc(O)c(O)c1-3 [apomorphine] |  |  |  |  |  | antipsychotic effects (schizophrenia): produce antipsychotic effects |
| CC(C)C[C@H]1C(=O)N2CCC[C@H]2[C@]2(O)O[C@](NC(=O)[C@@H]3C=C4c5cccc6[nH]c(Br)c(c56)C[C@H]4N(C)C3)(C(C)C)C(=O)N12 [bromocriptine] |  |  |  |  |  | antipsychotic effects (schizophrenia): produce antipsychotic effects; relief of Parkinson's disease symptoms (Parkinson's disease): relieve Parkinson's disease symptoms in some patients |
| Oc1cc2c(cc1O)C1c3ccccc3CNC1CC2 (stereo not shown) [dihydrexidine] |  |  |  |  |  | dopamine agonist activity (dopamine receptors): active as a dopamine agonist |
